| Structure (SMILES) | melting point |
| --- | --- |
| CCOC(=O)c1ccc(NCCc2cccs2)cc1 | 93 to 96 °C |
| CCC(=O)c1c(C(C)C)nn2ccccc12 | 41 to 42 °C |
| CC(C)c1cccc(C(C)C)c1NS(=O)(=O)CC(=O)NC(c1ccccc1)c1ccccc1 | 166 to 167 °C |
| CCCCc1oc2ccccc2c1C(=O)Nc1ccc2c(Br)c(OC(Cc3ccccc3)C(=O)O)ccc2c1 (configuration not stated) | 191 to 195 °C |
| CCCN1CC(C)=C(C)C2=C1N1CN(OC)C=C1C=N2 | 91 to 92.5 °C |
| Cc1ccc(/C=C/[C@@]2(O)C[C@H](O)CC(=O)O2)cc1 | 126 to 127 °C |
| O=C1OC(CCc2ccccc2)(c2ccccc2)CC(O)=C1SCc1cccc2ccccc12 (configuration not stated) | 132 to 134 °C |
| COc1ccc(N2CCN(c3c(C)c(C)c4c(c3C)C(O)C(C)(C)O4)CC2)cc1OC (configuration not stated) | 150 to 151 °C |
| COCc1cc2c(c3c1[nH]c1ccc(O)cc13)C(=O)N(CCN(C)C)C2=O | 235 to 237 °C |
| COc1ccc(-c2cc(=Nc3c(C)cc(C)cc3C)n(C)c(NN)n2)cc1OC | > 300 °C |
| CC(C)=CCN1Cc2c(Br)ccc3[nH]c(=O)n(c23)CC1C (single isomer, unassigned; (+)) | 125 °C |
| CNC(=NC#N)Nc1ccc(C2=NNC(=O)CC2C)cc1 (configuration not stated) | 235 °C |
| CCC(C(=O)C(C)C(O)C(C)CCc1ccc(C)c(O)c1C(=O)O)C1OC(CC)(C2CCC(O)(CC)C(C)O2)CC1C (configuration not stated) | 250 °C |
| COc1ccc(Cn2c(=O)c(C#N)c(Cl)c3cc(Cl)cnc32)cc1 | 208 °C |
| COC(=O)[C@@H]1OC(c2ccc(O)c(OC)c2)O[C@H]1C(=O)OC | 88 to 90 °C |
| N#Cc1ccc(C(=O)N[C@H]2CC[C@H](CCN3CCN(c4nccc5c4OCC5)CC3)CC2)cc1 | 262 °C |
| O=C(Nc1ccccc1)Nc1nc2ccc(OC(=O)c3ccccc3)cc2s1 | 245 to 249 °C |
| CC(C)c1nc(C(C)C)c(CSc2cccc(F)c2)c(-c2ccc(F)cc2)c1CO | 99 to 100 °C |
| O=C(NC(CO)C(=O)c1ccc(Cl)cc1)C1CCN(C(=O)OCc2ccccc2)CC1 (configuration not stated) | 116 to 118 °C |
| COc1ccc(S(=O)(=O)Nc2cccnc2NC(=O)c2ccccc2C)cc1 | 160 to 162 °C |
| CCc1ccc2c(c1)CCC21CCc2cc(CC)ccc21 | 236 to 239 °C |
| CC(C)(C)OC(=O)N1CCC[C@@H](OC(=O)Nc2ccc(Cl)cc2)C1 | 160 to 161 °C |
| NNS(=O)(=O)c1cccc2cccnc12 | 135 to 137 °C |
| Cn1nc(-c2cc3c(cc2F)OCC(=O)N3)c(Cl)c1C(F)(F)F | 207 °C |
| O=C(NC1CCCCC1)N[C@H]1C[C@H](C(=O)O)Nc2cc(Cl)cc(Cl)c21 (relative stereo) | 217 to 219 °C |
| O=C(c1ccc2c(c1)OC(F)(F)C(=O)N2)N1CCOCC1 | 214 to 217 °C |

| Structure (SMILES) | melting point |
| --- | --- |
| CC1(CNC=O)CC(=O)c2ccccc2O1 (configuration not stated) | 96 to 98 °C |
| CC(=O)OCC(CCc1nc2nc(N)nc(SCCC(=O)c3ccccc3)c2[nH]1)COC(C)=O | 130 to 131 °C |
| CC(C)(C)CN1C(=O)C2CC(c3ccc(N)cc3)(C2)C1=O | 142 to 143 °C |
| COCC#CCCCCC12OCC(C(C)(C)C)(CO1)CO2 | 47 to 49 °C |
| Cc1ccc(-n2cnnc2C(F)(F)F)c(C)c1 | 77 °C |
| CC#CCOc1ccc(S(=O)(=O)NC2(C(=O)NO)CCCCC2)cc1 | 82 to 84 °C |
| O=c1[nH]c2ccc(-c3cccc(Cl)c3)cc2s1 | 195 to 196 °C |
| Clc1ccc2c(c1)N(CC#CCN1CCCC1)c1ccccc1S2 | 48 to 50 °C |
| CS(=O)(=O)c1ccc(C(CC2CCCC2)C(=O)Nc2ccncn2)cc1Br (configuration not stated) | 75 to 80 °C |
| CC(C)CCCC(=O)OC1c2ccccc2C(=O)N1c1ccc2ccc(Br)nc2n1 (configuration not stated) | 136 °C |
| COc1ncc(Cl)cc1C1OC(=O)NC1=O (configuration not stated) | 199 to 204 °C |
| Fc1ccc(-c2ncn(C3CCNCC3)c2-c2ccnc(Oc3ccc(Oc4ccccc4)cc3)n2)cc1 | 174 to 175 °C |
| Nc1ccc2c(c1)C(=O)N(C1CCN(Cc3ccccc3)CC1)C2=O | 216 to 218 °C |
| Cc1cc(C)n(-c2ccc(N(C)N)nn2)n1 | 93 to 94 °C |
| CCCCCS(=O)(=O)NC(=O)/C=C/c1cc(OCCOC)nn1Cc1ccc(C(F)(F)F)cc1Cl | 130 to 132 °C |
| CNC(=O)Cn1c(-c2ccc(Cl)cc2)nc2ccc(Cl)nc21 | > 250 °C |
| O=C1N[C@@H](CC2CCCCC2)[C@H]1O | 147 to 148 °C |
| c1ccc2nc3c(nc2c1)OCC1CCCCN31 (configuration not stated) | 141 to 143 °C |
| O=S(=O)(Nc1ccc2c(OCc3nc4ccccc4s3)cccc2c1)C(F)(F)F | 190 to 192 °C |
| CC1CCN(C(=O)Oc2ccccc2-c2ccccc2)CC1 | 85 to 86 °C |
| COc1ncccc1-c1cncc(OC2SCC(O)C(O)C2O)c1 (configuration not stated) | 209 °C |
| CC(C)(O)Cn1c(CON)nc2c(N)nc3ccccc3c21 | 178 to 179 °C |
| CC(=O)Nc1ccc(C(=S)N2CCCCC2)cc1 | 202 to 203 °C |
| CONC(=N)c1nc(C)c(I)c(NCC(F)(F)F)n1 | 150 to 152 °C |
| Cc1cc(O)c(N2CC(=O)NS2(=O)=O)c(F)c1 | 164 to 166 °C |
| Cn1c2c(c3cc(OCc4ccccc4)ccc31)CC(C(N)=O)C2 (configuration not stated) | 145 to 148 °C |

| Structure (SMILES) | melting point |
| --- | --- |
| CC(C)(C)OC(=O)Nc1cc(N2CCSCC2)c(I)cc1N | 125 to 127 °C |
| CC1=C(C)C(=O)C(CCCOc2ccc(C=C3SC(=O)NC3=O)cc2)=C(C)C1=O | 230 to 232 °C |
| CC(C(=O)NCCN(C)C)n1cc(-c2ccc(Oc3ccccc3)cc2)c2c(N)ncnc21 (configuration not stated) | 163 to 164 °C |
| NCCCOc1ccc(-c2ncc3c(=O)[nH][nH]c(=O)c3c2O)cc1 | > 300 °C |
| N#Cc1cccc(C(=O)Nc2ccc(-n3nc(C(F)(F)F)cc3C(F)(F)F)nc2)c1 | 206 to 208 °C |
| COc1cccc2sc(NC(=O)COC(C)=O)nc12 | 161 to 162 °C |
| N#Cc1cc(C(=O)Cl)n(/C=C/c2ccccc2)c1 | 119 to 121 °C |
| Cn1c(COc2ccc(C=C3SC(=O)NC3=O)cc2)nc2cccnc21 | 279 to 281 °C |
| CCCc1c(O)ccc(C(=O)c2ccccc2O)c1O | 110 to 113 °C |
| COc1ccc2c(c1)Sc1c(cc(OC)c(OC)c1Br)N2C | 135 to 137 °C |
| CCn1cnc2c(C#N)nc(Cl)cc21 | 138 °C |
| CCCCCCOCOc1c(C(C)(C)C)cc(-c2ccc(C#N)c(C#N)c2)cc1C(C)(C)C | 106 to 107 °C |
| CCN(CC)C(=O)Cc1cc(C(C)C)c(O)cc1C | 138 to 139 °C |
| C#CCC(NC(=O)c1ccccc1)C(C)=O (configuration not stated) | 101 to 103 °C |
| COc1cccc(CN2Cc3cc(OC)c(O)cc3C(OC)C2)c1 (configuration not stated) | 133 to 134 °C |
| O=C1c2ccncc2C(=O)c2c(F)ccc(O)c21 | 189 to 192 °C |
| CC(Cl)(Cl)C(Cl)(Cl)c1cccc([N+](=O)[O-])c1 | 75.5 to 77 °C |
| CCCCCCCCC#CCC#CCC#CCS(=O)CC(=O)NCC (configuration not stated) | 77 °C |
| Brc1ccc2c(c1)C1(c3ccccc3-c3ccccc31)c1cc(Br)ccc1-2 | 340 to 341 °C |
| CCCCCOc1ccc(CCOc2ccc(/C=C(\OCC)C(=O)O)cc2OCCCC)cc1F | 102 °C |
| CCCCCCCC[C@H](C)C(=O)Oc1ccc(C(=O)O)cc1 | 92.5 to 96.5 °C |
| O=C(COc1cc(-c2cccs2)nc2ccccc12)N1CCOCC1 | 198 °C |
| CN1C(=O)C2(COc3cc4c(cc32)OCCO4)c2c(C(=O)N3CCCC3)cccc21 (configuration not stated) | 242 to 244 °C |
| CCCCCCCCCCCCCC(=O)Nc1ccc(Cl)c(NC2=NN(c3c(Cl)cc(Cl)cc3Cl)C(=O)C2SCCc2ccccc2)c1 (configuration not stated) | 161 to 162 °C |
| Cn1c(COc2ccc(C#N)cc2)nc2nc(C=O)ccc21 | 231 to 234 °C |
| CC(C)n1nc(-c2sc(NC(=N)N)nc2-c2ccccc2)ccc1=O | > 250 °C |

| Structure (SMILES) | melting point |
| --- | --- |
| COC1(OC)CCN(Cc2ccccc2)CC1O (configuration not stated) | 90.1 °C |
| COc1ccc(-c2ncc(C(F)(F)F)cc2Cl)cc1 | 71 to 72 °C |
| Cc1ccc2c(c1)C(=O)CCC21CCC(=O)NC1=O (configuration not stated) | 252 to 254 °C |
| CC1(C)CCCC(C)(C)N1Cc1ccc2cc(NC(=O)c3ccc(-c4ccc(F)cc4)cc3)ccc2c1 | 238 to 241 °C |
| CCOCc1nc2c(N)nc3cc(-n4ccnc4)cnc3c2n1CC(C)C | 175 to 176 °C |
| CCCOCCOC(=O)C1=C(C)NC(C)=C(c2nc(CCl)no2)C1c1cccc([N+](=O)[O-])c1 (configuration not stated) | 129 to 130 °C |
| CC(=O)N1CC(C)(C)c2cc3[nH]nnc3cc21 | 281 to 283 °C |
| O=Cc1cc(-c2ccc(Cl)cc2F)ccc1OC(F)(F)F | 41 to 42 °C |
| Fc1ccc(F)c(C(Sc2ccc(Cl)cc2)c2ccc(C3OCCO3)cn2)c1 (configuration not stated) | 70 to 73 °C |
| O=C1Nc2c(Cl)cccc2C12COc1cc3c(cc12)CCO3 (configuration not stated) | > 250 °C |
| CC(=O)OCC1OC(n2cc(C=O)c3c(F)cccc32)C(OC(C)=O)C(OC(C)=O)C1OC(C)=O (configuration not stated) | 190 to 192 °C |
| COC(=O)c1ccc2c(c1)c(=O)[nH]c(=O)n2CCCCN1CCC(OC(c2ccccc2)c2ccccc2)CC1 | 151 to 153 °C |
| COC(=O)c1cc(Br)c(C#N)s1 | 102 to 103 °C |
| COC(=O)c1ccc2nc(-c3ccc(C(C)(C)C)cc3)[nH]c2c1 | 152 °C |
| CCCCN(CC)C(=O)c1cnc2c3c(ccc2c1)C(=O)C(C(=O)O)C=N3 (configuration not stated) | 236 to 237 °C |
| Cc1nn(-c2c(Cl)cc(C(F)(F)F)cc2Cl)c(N)c1SC#N | 134 °C |
| CC(=O)OCC[C@H](NC(=O)C(F)(F)F)C(=O)O | 134 to 136 °C |
| O=C(Nc1ccccc1)c1nn(-c2cccc(C(F)(F)F)c2)ccc1=O | 181 to 182 °C |
| COc1cc(CCCCCCCC2OC(=O)NC2=O)ccc1OCc1nc(-c2ccccc2)oc1C (configuration not stated) | 109 to 111 °C |
| CCOC(=O)c1c(C2CCN(C)CC2)[nH]c(-c2ccc(F)c(F)c2)c1-c1ccncc1 | 262 to 265 °C |
| CCOC(=O)c1ccc2cc(Cl)ccn2c1=O | 161 to 164 °C |
| COc1ccc(/C=C/c2c(Cl)cncc2Cl)c2c1OCCCO2 | 118 to 120 °C |
| NC(=O)N(O)CC#Cc1cccc(Oc2ccccn2)c1 | 158 to 160 °C |
| Cc1cc(C)cc(OCC(O)CNc2nc(-c3ccccc3)nc3ccccc23)c1 (configuration not stated) | 170 to 172 °C |

From a melting point compilation (Tetko et al.; mined from patent text by program, amines drawn as free bases though some values may be those of a salt)
